Test results from US20060189678A1, “4,5-dihydronaphtho[1,2-b]thiophene derivative” (priority 2003, published 2006).

What was measured:
[1] = system: Male KKAy mice (model for type 2 diabetes); test: Serum glucose level in KKAy mice (enzyme method, L-type Wako GLU2); assay type: in vivo; settings: n=6, subcutaneous 3 mg/5 mL/kg twice a day for 2 weeks, serum from orbital venous plexus blood, control group 532, healthy group 211, ** P<0.01
Procedure: (§1) Male KKAy mice (11 to 12 weeks old) (each n=6) were used as a model for type 2 diabetes. 11% sulfobutyl ether-β-cyclodextrin was added to the compounds of Examples 1 and 59, and these products were administered subcutaneously in a dose of 3 mg/5 mL/kg, twice a day, continuously for 2 weeks. A group that was given just the vehicle was used as a control group, and male C57BL/6J mice (11 to 12 weeks old) (n=6) that had similarly been given the vehicle were used for a healthy group. The livers were collected, and a Triglyceride E Test Wako (Wako Pure Chemicals) was used to quantify the triglyceride content in the liver. […] Blood was also sampled from the orbital venous plexus, and the glucose level in the separated serum was quantified by enzyme method using a L-type Wako GLU2 (Wako Pure Chemicals).

[2] = system: Male KKAy mice (model for type 2 diabetes); test: Triglyceride content in the liver of KKAy mice (Triglyceride E Test Wako); assay type: in vivo; settings: n=6, subcutaneous 3 mg/5 mL/kg twice a day for 2 weeks, control group 61.7, healthy group 12.5, * P<0.05, ** P<0.01
Procedure: as §1

| SMILES | Blood glucose level [1] | Triglyceride content in liver [2] |
| --- | --- | --- |
| CC(=O)c1cc2c(s1)-c1cc(C)cc(C)c1CC2 [Example 1, 2-acetyl-4,5-dihydro-6,8-dimethylnaphtho[1,2-b]thiophene] | 491 mg/dL | 47.5* mg/g liver |
| Cc1cc(C)c2c(c1)-c1sc(CCO)cc1CC2 [Example 59, 2-(2-hydroxyethyl)-4,5-dihydro-6,8-dimethylnaphtho[1,2-b]thiophene] | 269** mg/dL | 34.8** mg/g liver |
